Results from PubChem BioAssay AID330 (DTP/NCI, 2004).
Values joined by “and” are separate entries in the source; they are usually repeats but may differ in a detail not shown here. Equal values may be shown once. Toxic doses and inconclusive results are not listed. Rule for the calls: active = survival T/C of 150% or more; inactive = T/C below 125% in these data.

Tested on: P388 leukemia ip, CD2F1 mice, survival T/C
Assay: NCI In Vivo Anticancer Drug Screen. Data for tumor model P388 Leukemia (intraperitoneal) in CD2F1 (CDF1) mice
Conditions: endpoint: median survival time, higher = longer survival
In short: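 Mice carrying the transplanted tumor received test compound or vehicle. Survival was recorded in each group, and the value is the treated-group measurement divided by that of the vehicle-treated control group.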

Measured: T/C

COC1=C(N)C(=O)c2nc(-c3nc(C(=O)O)c(C)c(-c4ccc(OC)c(OC)c4O)c3N)ccc2C1=O
inactive: dose: 0.01 mg/kg/injection, schedule: Q01DX009 (ip), vehicle: other 93 % of control | dose: 0.01 mg/kg/injection, schedule: Q## X024 (ip), vehicle: other 110 % of control | dose: 0.02 mg/kg/injection, schedule: Q01DX009 (ip), vehicle: DMSO 101 % of control | dose: 0.02 mg/kg/injection, schedule: Q## X016 (ip), vehicle: other 110 % of control | dose: 0.02 mg/kg/injection, schedule: Q## X024 (ip), vehicle: other 100 % of control | dose: 0.03 mg/kg/injection, schedule: Q01DX009 (ip), vehicle: distilled water + Tween-80 117 % of control and 97 % of control | dose: 0.03 mg/kg/injection, schedule: Q01DX009 (ip), vehicle: other 95 % of control | dose: 0.04 mg/kg/injection, schedule: Q01DX009 (ip), vehicle: DMSO 123 % of control | dose: 0.05 mg/kg/injection, schedule: Q01DX001 (ip), vehicle: other 120 % of control | dose: 0.05 mg/kg/injection, schedule: Q01DX009 (ip), vehicle: DMSO 119 % of control | dose: 0.05 mg/kg/injection, schedule: Q## X008 (ip), vehicle: other 120 % of control | dose: 0.05 mg/kg/injection, schedule: Q## X016 (ip), vehicle: other 110 % of control | dose: 0.05 mg/kg/injection, schedule: Q## X024 (ip), vehicle: other 110 % of control | dose: 0.06 mg/kg/injection, schedule: Q01DX009 (ip), vehicle: DMSO 124 % of control | dose: 0.08 mg/kg/injection, schedule: Q01DX009 (ip), vehicle: DMSO 110 % of control | dose: 0.1 mg/kg/injection, schedule: Q01DX001 (ip), vehicle: other 120 % of control | dose: 0.1 mg/kg/injection, schedule: Q01DX009 (oral), vehicle: other 110 % of control | dose: 0.1 mg/kg/injection, schedule: Q## X008 (ip), vehicle: other 120 % of control | dose: 0.1 mg/kg/injection, schedule: Q## X016 (ip), vehicle: other 110 % of control | dose: 0.12 mg/kg/injection, schedule: Q01DX009 (ip), vehicle: other 120 % of control | dose: 0.15 mg/kg/injection, schedule: Q01DX009 (ip), vehicle: dioxane 123 % of control | dose: 0.16 mg/kg/injection, schedule: Q01DX009 (ip), vehicle: distilled water + Tween-80 123 % of control | dose: 0.16 mg/kg/injection, schedule: Q01DX009 (ip), vehicle: other 102 % of control and 103 % of control | dose: 0.2 mg/kg/injection, schedule: Q01DX001 (ip), vehicle: other 120 % of control | dose: 0.2 mg/kg/injection, schedule: Q01DX009 (oral), vehicle: other 110 % of control | dose: 0.2 mg/kg/injection, schedule: Q## X008 (ip), vehicle: other 120 % of control | dose: 0.2 mg/kg/injection, schedule: Q## X016 (ip), vehicle: other 120 % of control | dose: 0.32 mg/kg/injection, schedule: Q01DX009 (ip), vehicle: distilled water + Tween-80 101 % of control and 94 % of control | dose: 0.4 mg/kg/injection, schedule: Q01DX009 (oral), vehicle: other 110 % of control | dose: 0.8 mg/kg/injection, schedule: Q01DX001 (oral), vehicle: other 100 % of control | dose: 0.8 mg/kg/injection, schedule: Q01DX009 (oral), vehicle: other 100 % of control | dose: 1.6 mg/kg/injection, schedule: Q01DX001 (oral), vehicle: other 100 % of control | dose: 2.5 mg/kg/injection, schedule: Q01DX009 (ip), vehicle: saline with Tween-80 95 % of control | dose: 3.2 mg/kg/injection, schedule: Q01DX001 (oral), vehicle: other 90 % of control | dose: 12.5 mg/kg/injection, schedule: Q01DX009 (ip), vehicle: distilled water + Tween-80 103 % of control | dose: 25.0 mg/kg/injection, schedule: Q01DX009 (ip), vehicle: distilled water + Tween-80 110 % of control | dose: 50.0 mg/kg/injection, schedule: Q01DX009 (ip), vehicle: distilled water + Tween-80 119 % of control | dose: 200.0 mg/kg/injection, schedule: Q01DX009 (ip), vehicle: distilled water + Tween-80 119 % of control | dose: 25.0 micrograms/kg/injection, schedule: Q01DX009 (ip), vehicle: other 120 % of control | dose: 400.0 micrograms/kg/injection, schedule: Q01DX009 (ip), vehicle: other 114 % of control
